Experimental findings from patent US8227428B2, “Anti-infammatory macrolide” (Glaxo Group Limited, priority 2009, dated 2012) are described below.

Data set [1] in a line: Stability in buffer solutions pH 2 to pH 8 at 25° C. It is filed as physicochemical. The settings on record: 25° C., during 24 hours. As to the method:
(§1) Stability in buffer solutions pH 2 to pH 8 at 25° C., and in bio-relevant media (SGF pH 1.6, Fasted SIF pH 6.5 and Fed SIF pH 5.0) at 37° C., during 24 hours is monitored. The samples are analysed by LC/MS.
Buffer Solutions and Physiologically Relevant Media Used in Stability Assay:
LC Conditions: Instrument HP1100
Column: Waters XBridge C18, 2.1×50 mm, 3.5 μm
Guard column: Waters XBridge C18, 2.1×10 mm, 3.5 μm
• A) 0.1% HCOOH/H2O • B) 0.1% HCOOH/CH3CN Gradient Timetable: […]
(§2) Flow: 0.3 mL/min Column temp.: 25° C. Sample temp.: 25° C. (for stability assay in buffer solutions) • 37° C. (for stability assay in bio-relevant media) Injector volume: 3 μL (without injection program) MS Conditions: Instrument HP MS API-ES, positive ion mode Mass Range: 150-1500 Fragmentor: 100 Gain: 1.0 Treshold: 150 Step size: 0.20 Gas Temperature: 350° C. Drying Gas Flow: 13 L/min Nebulizer Pressure: 35 psig Capillary Voltage Positive 4000 V • Negative 4000 V Sample Preparation: a) For Stability Assay in Buffer Solutions
Compounds are dissolved in CH3CN to produce a 1 mg/mL stock solution. The stock solution is diluted to a concentration of 0.2 mg/mL (1 mL solution in 4 mL buffer) with appropriate buffer to produce a working solution.
Each solution at each pH is then dispatched into vials that are sealed and stored at room temperature in order to be analyzed at the proper time point. Before analysis, pH values of prepared sample solutions are checked and adjusted if neccessary.

Data set [2] concerns Lung neutrophilia induced by bacterial lipopolysaccharide (LPS). The data set can be described thus: Lung neutrophilia induced by bacterial lipopolysaccharide (LPS) in male BALB/cJ mice. Type of data set: in vivo. The following applies: average; single dose 200 mg/kg i.p.; vs LPS challenged untreated animals. On the procedure:
For intraperitoneal administration (i.p.) compounds are dissolved in a final concentration of 10 mg/mL. The required amount of compound is first dissolved in dimethylsulfoxide (DMSO, Sigma) and then diluted with 0.5% (w/v) methyl-cellulose so that the final DMSO concentration is 5% (v/v). The obtained solution is applied in a dose volume of 0.2 mL per 10 g of animal. Therefore, the compound dose is 200 mg/kg.
Male BALB/cJ mice (Charles River, France), with an average weight of ˜30 g are randomly grouped (n=8 in testing group, 10 in positive control and 8 in negative control). Mice receive intraperitoneally (i.p.) a single dose of 200 mg/kg of test compound. Two hours after administration, 2 μg of LPS (from Escherichia coli serotype 0111:B4, Sigma), dissolved in sterile PBS in a volume of 60 μL, is intranasally administered to all experimental groups except the negative control group, which receive the same volume of vehicle (PBS). Animals are sacrificed approximately 24 hours after application of LPS in order to obtain bronchioalveolar lavage fluid (BALF), which is used to determine absolute number of cells and the percentage of neutrophils. Results are expressed as percentage decrease in total cell number and number of neutrophils in BALF of treated animals compared to positive control (LPS challenged, but untreated animals).

Data set [3] can be described thus: In vitro stability in human plasma. Type of data set: in vitro ADME. The following applies: 37° C., 2000 ng/mL, over 24 hours. On the procedure:
(§3) An in vitro stability study in human whole blood and plasma is carried out over 24 hours at 37° C. Drug-free freshly collected human blood (CPD—citrate-phosphate-dextrose is used for all blood collections as anticoagulant) and plasma are spiked with a previously prepared standard solution of test compound to a final concentration of 2000 ng/mL. For each compound blood and plasma are spiked in duplicate and incubated for 24 hours. Two separate aliquots of blood or plasma (50 μL) are sampled from each incubation mixture at 0, 15, 30, 60, 120, 240 and 1440 minutes. All aliquots are mixed with an equal volume of water (50 μL) and extracted with 300 μL of acetonitrile/methanol (2:1) containing internal standard (roxithromycin). The samples are then vortexed, centrifuged and analysed by LC/MS/MS (MRM mode). Results are expressed as the percentage of compound remaining, expressed as the ratio of analyte/internal standard.

The nature of data set [4]: In vitro stability in human whole blood. Type of data set: in vitro ADME. The settings on record: 37° C., 2000 ng/mL, over 24 hours. On the procedure:
as §3

Data set [5] in a line: Stability in bio-relevant media (SGF, Fasted SIF, Fed SIF) at 37° C. It is filed as physicochemical. The following applies: SGF pH 1.6, Fasted SIF pH 6.5, Fed SIF pH 5.0, 37° C., during 24 hours. On the procedure: as §1
SGF (Simulated Gastric Fluid) pH 1.6
Fasted SIF (Simulated Intestinal Fluid) pH 6.5
Fed SIF (Simulated Intestinal Fluid) pH 5.0
as §2
b) For Stability Assay in Bio-Relevat Media
b1) For SGF Media pH 1.6 Testing:
Compounds are dissolved in SGF media pH 1.6 to give 0.2 mg/mL solution in case of compounds 1 and 2, and to give 0.1 mg/mL solution in case of compound 3. Solutions are then stored in a water bath at 37° C. and removed at the proper time point for LC/MS analysis. Before analysis, pH values of prepared sample solutions are checked and adjusted if necessary.
b2) For Fasted SIF Media pH 6.5 Testing:
Compounds are dissolved in Fasted SIF media pH 6.5 to give 2 mg/mL solution. Solutions are then dispatched into vials that are stored in a water bath at 37° C. and removed at the proper time point and diluted 10 times with CH3CN for LC/MS analysis. Before analysis, pH values of prepared sample solutions are checked and adjusted if necessary.
b3) For Fed SIF Media pH 5.0 Testing:
Compounds are dissolved in Fed SIF media pH 5.0 to give 2 mg/mL solution. Solutions are then dispatched into vials that are stored in a water bath at 37° C. and removed at the proper time point and diluted 40 times with CH3CN for LC/MS analysis. Before analysis, pH values of prepared sample solutions are checked and adjusted if necessary.

Data set [6] has as its system Moraxella catarrhalis ATCC23246. As to the kind of experiment: Anti-bacterial screening, broth microdilution MIC. It is filed as cell-based. The settings on record: read-out: minimal inhibitory concentration (MIC). As to the method: (§4) Whole-cell antimicrobial activity of compounds against clinically relevant bacteria (Staphylococcus aureus ATCC13709, Streptococcus pneumoniae ATCC49619, Streptococcus pyogenes ATCC700294, Moraxella catarrhalis ATCC23246, Haemophilus influenzae ATCC49247 and Escherichia coli ATCC25922) is determined by broth microdilution using the Clinical and Laboratory Standards (CLSI) recommended procedure (Document M7-[…], Methods for Dilution Susceptibility Tests for Bacteria that Grow Aerobically). Compounds are dissolved in DMSO to produce a 50 mM stock solution. The stock solution is diluted to a concentration of 128 μg/mL in appropriate media (Haemophilus Test Medium for Haemophilus influenzae, Mueller-Hinton Broth for Staphylococcus aureus, Moraxella catarrhalis and Escherichia coli, and Mueller-Hinton Broth supplemented with 5% horse serum for Streptococcus pyogenes and Streptococcus pneumoniae) to produce a working solution. A Tecan Genesis 150 Workstation (Tecan Group Ltd. Mannedorf, Switzerland) is used to prepare serial two-fold dilutions (50 μL aliquots) of the working solution in a U-shape bottom 96 well microtitre plate. After the compounds are diluted, a 50 μL aliquot of the test isolate ( 1×10^6 cfu/ml) is added to each well of the microtitre plate. The final test concentrations range from 0.125-64 μg/mL. Inoculated plates are incubated at 35° C. in ambient air for 18 to 24 hours. The minimum inhibitory concentration (MIC) is determined as the lowest concentration of compound that inhibited visible growth.
In general terms: Broth dilution looks for growth in wells or tubes with falling amounts of substance.

Data set [7] concerns Haemophilus influenzae ATCC49247. As to the kind of experiment: Anti-bacterial screening, broth microdilution MIC. It is filed as cell-based. The settings on record: read-out: minimal inhibitory concentration (MIC). On the procedure: as §4
Data set [8] relates to Escherichia coli ATCC25922. The data set can be described thus: Anti-bacterial screening, broth microdilution MIC. The following applies: read-out: minimal inhibitory concentration (MIC). Type of data set: cell-based. On the procedure:
as §4

In data set [9] the test system is Streptococcus pneumoniae ATCC49619. The data set can be described thus: Anti-bacterial screening, broth microdilution MIC. It is filed as cell-based. The settings on record: read-out: minimal inhibitory concentration (MIC). As to the method:
as §4

Data set [10] relates to Streptococcus pyogenes ATCC700294. The data set can be described thus: Anti-bacterial screening, broth microdilution MIC. Type of data set: cell-based. The settings on record: read-out: minimal inhibitory concentration (MIC). On the procedure: as §4
The subject of data set [11] is Staphylococcus aureus ATCC13709. The data set can be described thus: Anti-bacterial screening, broth microdilution MIC. Type of data set: cell-based. The following applies: read-out: minimal inhibitory concentration (MIC). On the procedure:
as §4

For `CC[C@H]1OC(=O)[C@H](C)[C@@H](O[C@H]2C[C@@](C)(OC)[C@@H](OC(=O)CN(CC)CC)[C@H](C)O2)[C@H](C)[C@@H](O[C@@H]2O[C@H](C)C[C@H](NC)[C@H]2O)[C@](C)(OC)C[C@@H](C)C(=O)N[C@H](C)[C@@H](O)[C@]1(C)O` [Example 1, 3′-N-Demethyl-4″-O-(2-diethylaminoethanoyl)-6-O-methyl-9a-aza-9a-homoerythromycin A], in [1], the “stability in buffers pH 2 to 8” value is on record as “showed stability”. Moreover, in data set [2], the “inhibition of the number of neutrophils in BALF” value is reported as “more than 89%”. Besides, in data set [3], the stability in plasma entry is given as “stable”. For the same molecule, in data set [4], the “stability in whole blood” value is on record as “stable”. In data set [5], the “stability in all three bio relevant media” value was “Examples 1 and 3 showed stability in all three bio relevant media”. Besides, the MIC in data set [6], in data set [7], in [8], in data set [9], in data set [10] and in data set [11] was greater than 64 µg/mL throughout.
